For the series the following is noted: 293.15 K; 101.33 kPa; Liquid; Vibrating tube method.

Numbers after ± are expanded uncertainties.

As a reminder, the mass density is the mass of a sample divided by its volume.

Turning to `C[n+]1ccn(CCO)c1.F[B-](F)(F)F` [1-(2-hydroxyethyl)-3-methylimidazolium tetrafluoroborate], the mass density turned out to be 1330 ± 20 kg/m3.

For `Cc1n(CCO)cc[n+]1C.F[B-](F)(F)F` [1-(2-hydroxyethyl)-2,3-dimethylimidazolium tetrafluoroborate], the mass density is listed as 1360 ± 20 kg/m3.

These data come from the NIST ThermoML archive (doi:10.1021/je050455+).
